Patent US20090185973A1, “METHODS, COMPOSITIONS, UNIT DOSAGE FORMS, AND KITS FOR PHARMACOLOGIC STRESS TESTING WITH REDUCED SIDE EFFECTS” (ADENOBIO N.V., priority 2008, published 2009)
Where “and” joins values, the source holds several entries; their conditions need not be identical. Equal values may be shown once. Read-outs that look alike come from different tables or passages of the source.

Key:
patients [1] = experiment: Priming dose effect with the sequential administration mode (Example 5); type: in vivo, human; settings: N = 10
From the text: Again there was no difference between the two methods for both peak and mean velocities.

[2] = tested on: patients with normal coronary reserve; experiment: Priming dose effect: time to peak and return to baseline, concurrent administration (Example 4); type: in vivo, human; settings: for Time to peak, individual patients / Return to BL, individual patients / Return to BL, Mean / Return to BL, Total / Time to peak, Mean / Time to peak, Total: N = 6; for Time to peak, individual patients / Return to BL, individual patients: listed as ADE; for Time to peak (near maximal hyperemia): adenosine alone vs concurrent combination without priming dose, on average
From the text: As a test, a low priming dose of dipyridamole was combined with the concurrent administration of the two drugs to determine whether the time to peak and the occurrence of near maximal hyperaemia could be accelerated, especially when infusion time is reduced by, for example, one minute.

patients [3] = settings: most frequently reported adverse effects with adenosine; cited from earlier work
coronary patients [4] = experiment: Tolerance, severity of main symptoms (Example 3); type: in vivo, human
From the text: Primary efficacy end-points were peak and mean diastolic flow velocities (their measurements reflect coronary blood flow values). The secondary end-point was patient's tolerance to the procedure.

patients [5] = experiment: Control: two consecutive adenosine infusions, TTDE velocities; type: in vivo, human; settings: for MV Min, individual patients / PV Min, individual patients / MV Min, mean / PV Min, mean: at rest; for MV Min, individual patients / PV Min, individual patients / PV Max, individual patients / MV Max, individual patients: ADE1 first, ADE2 second adenosine infusion; for MV Min, mean / PV Min, mean / MV Max, mean / PV Max, mean: mean of 5 patients; for PV Max, individual patients / MV Max, individual patients / MV Max, mean / PV Max, mean: under stress
From the text: Abbreviations used in the table are defined below:

coronary patients [6] = experiment: SPECT imaging study, summed difference scores (Example 2, Phase II); type: in vivo, human; design: key: SDS = SSS − SRS; summed 17-segment scores, each segment 0–4; settings: Series I sequential: SC = dipyridamole 40 μg/kg bolus then adenosine 70 μg/kg/min 4 min; Adenoscan 140 μg/kg/min; 10 patients
From the text: The study was a mono-center, single-blind, 2-arm, cross-over trial.
Only those patients in whom an ischemic zone was detected were declared eligible for the second test, and were enrolled in the study if other inclusion criteria were satisfied.
SPECT images were acquired as per the standard approach performed the preceding week.
Since thallium is currently deemed the best isotope to test myocardial viability at rest, and sestamibi the best isotope to detect myocardial defects under stress conditions, a dual isotope myocardial scintigraphy technique was used for this study. The isotope was injected after a 3 minute infusion with Adenoscan or after a 2.5 minute infusion with the combination. […]
Randomization of SPECT images, and their analysis by two blinded readers, took place every 10 patients. Anonymous and randomized images were assessed using the standard 17-segment model and the semi-quantitative visual score method on a 5-point scale (from 0 to 4). An additional totally computerized quantitative method was performed using the validated CardioGam software (Segami Corp.). All images were interpreted and quantified automatically by the software calculation package. […]
Summed stress scores (with Adenosine or with Adenosoft) were defined as SSS, summed rest scores (Thallium) as SRS and summed difference scores as SDS=SSS-SRS. […] If >2, images were read again by a third independent expert. […]

[7] = tested on: patients suffering from ischemic heart disease; experiment: Tolerance: occurrence and severity of adverse events (Example 1); type: in vivo, human
From the text: The secondary end-point was patient tolerance to the procedure.
Cumulative results on the severity of the three subjective symptoms of the composite (chest pain, dyspnea, flushing) rated from 0 to 30. Cumulative results on the severity of the three subjective symptoms of the composite (chest pain, dyspnea, flushing) rated from 0 to 30.

patients [8] = type: in vivo, human
[9] = ADE vs C concurrent with dipyridamole priming dose (0.1 mg)
[10] = with dipyridamole priming dose (0.1 mg)
[11] = without dipyridamole priming dose
[12] = adenosine 70 μg/kg/min + dipyridamole 10 μg/kg/min vs adenosine 140 μg/kg/min, 2 min
[13] = DIP4 (n = 5), dipyridamole 35 μg/kg
[14] = DIP5 (n = 30), dipyridamole 28 μg/kg
[15] = DIP6 (n = 5), dipyridamole 23 μg/kg
[16] = TOTAL (n = 40), all dipyridamole doses
[17] = all 40 patients, ADE 140 μg/kg/min, All SC (DIP 4/5/6)
[18] = DIP dose 28 μg/kg, ADE 140 μg/kg/min
[19] = DIP dose 35 μg/kg, ADE 140 μg/kg/min, listed as ADE
[20] = DIP dose 40 μg/kg, ADE 140 μg/kg/min, listed as ADE

## Nc1ncnc2c1ncn2[C@@H]1O[C@H](CO)[C@@H](O)[C@H]1O [adenosine]
Patients [1]; ADE 140 μg/kg/min vs C sequential (Dip 40 μg/kg + Ade 70 μg/kg/min), listed as ADE
  Return to BL, individual patients: 30 seconds (2×) and 60 seconds (3×) and 50 seconds and 35 seconds (2×) and 40 seconds and 28 seconds
Patients [1]; ADE 140 μg/kg/min vs C sequential (Dip 40 μg/kg bolus + Ade 70 μg/kg/min over 2 minutes), listed as ADE
  Time to peak, individual patients: 70 seconds and 50 seconds (2×) and 75 seconds and 60 seconds (2×) and 35 seconds and 38 seconds and 90 seconds and 40 seconds
Patients [1]; sequential administration
  Return to BL, Mean: 43 s
  Return to BL, Total: 428 s
  Time to peak, Mean: 57 s
  Time to peak, Total: 568 s
[2]; ADE 140 μg/kg/min vs C (Dip 10 μg/kg/min + Ade 70 μg/kg/min) concurrent without dipyridamole priming dose
  Time to peak, individual patients: 56 s and 120 s and 50 s and 85 s and 80 s and 75 s
[2]; ADE 140 μg/kg/min vs C concurrent without dipyridamole priming dose
  Return to BL, individual patients: 75 seconds and 60 seconds (3×) and 100 seconds and 48 seconds
[2]; [9]
  Return to BL, individual patients: 55 s and 65 s and 54 s and 67 s and 48 s and 60 s
  Time to peak, individual patients: 74 s and 55 s and 45 s and 44 s and 30 s and 40 s
[2]
  Time to peak (near maximal hyperemia): about 1 minute
[2]; listed as Adenoscan
  Time to peak (near maximal hyperemia): ~1 min
[2]; [10]
  Return to BL, Mean: 58.1 s
  Return to BL, Total: 349 s
  Time to peak, Mean: 48 s
  Time to peak, Total: 288 s
[2]; [11]
  Return to BL, Mean: 67.1 s
  Return to BL, Total: 403 s
  Time to peak, Mean: 69.3 s
  Time to peak, Total: 416 s
Patients [3]
  Frequency of chest pain or chest discomfort: 40%
  Frequency of gastrointestinal discomfort: 13%
  Frequency of throat or neck or jaw discomfort: 15%
Coronary patients [4]; Example 3 series
  Patients who experienced thoracic discomfort: 4 patients
Coronary patients [4]; [12]
  Severity of chest pain: 0.68 ± 1.87
  Severity of dyspnea: 3.64 ± 3.67
  Severity of flushing: 4.50 ± 3.15
Patients [5]; 5 patients
  Max velocity differential MV (ADE1 − ADE2): 52.6 (ADE2) = 2.4 cm/sec
  Max velocity differential PV (ADE1 − ADE2): 70.8 (ADE2) = 4.8 cm/sec
Patients [5]; 140 mcg/kg/min, 5 minute interval, p>0.05
  Difference in velocity measurements between two consecutive infusions: no difference was seen
Patients [5]; listed as ADE1
  MV Min, individual patients: 20 cm/s and 25 cm/s and 17 cm/s and 22 cm/s and 23 cm/s
  PV Min, individual patients: 28 cm/sec and 34 cm/sec and 23 cm/sec and 30 cm/sec (2×)
  MV Min, mean: 21.4 cm/s
  PV Min, mean: 29 cm/sec
  MV Max, mean: 55 cm/s
  PV Max, mean: 75.6 cm/sec
Patients [5]; listed as ADE2
  MV Min, individual patients: 20 cm/s and 23 cm/s and 16 cm/s and 22 cm/s and 21 cm/s
  PV Min, individual patients: 25 cm/sec and 31 cm/sec and 22 cm/sec and 29 cm/sec and 26 cm/sec
  MV Min, mean: 20.4 cm/s
  PV Min, mean: 26.6 cm/sec
  MV Max, mean: 52.6 cm/s
  PV Max, mean: 70.8 cm/sec
Patients [5]; 140 mcg/kg/min, 5 minute interval, listed as ADE1
  PV Max, individual patients: 70 cm/sec and 68 cm/sec and 65 cm/sec and 102 cm/sec and 73 cm/sec
Patients [5]; 140 mcg/kg/min, 5 minute interval, listed as ADE2
  PV Max, individual patients: 62 cm/sec and 60 cm/sec and 66 cm/sec and 103 cm/sec and 63 cm/sec
Patients [5]; 140 mcg/kg/min, listed as ADE1
  MV Max, individual patients: 50 cm/s and 49 cm/s and 48 cm/s and 75 cm/s and 53 cm/s
Patients [5]; 140 mcg/kg/min, listed as ADE2
  MV Max, individual patients: 48 cm/sec (2×) and 45 cm/sec and 75 cm/sec and 47 cm/sec
Coronary patients [6]
  SDS (summed difference scores), individual patients: 5 (5×) and 4 (2×) and 14 and 13 and 7
[7]; [13]
  Severity of dyspnea: 1.4 ± 1.95
  Severity of flushing: 2.9 ± 2.88
[7]; DIP4 (n = 5): SC dipyridamole 35 μg/kg + adenosine 70 μg/kg/min vs adenosine alone 140 μg/kg/min
  Severity of chest pain: 1.2 ± 2.68
[7]; [14]
  Severity of dyspnea: 2.33 ± 2.59
  Severity of flushing: 2.35 ± 2.53
[7]; DIP5 (n = 30): SC dipyridamole 28 μg/kg + adenosine 70 μg/kg/min vs adenosine alone 140 μg/kg/min
  Severity of chest pain: 1.12 ± 1.95
[7]; [15]
  Severity of dyspnea: 5 ± 3.08
  Severity of flushing: 3.2 ± 3.42
[7]; DIP6 (n = 5): SC dipyridamole 23 μg/kg + adenosine 70 μg/kg/min vs adenosine alone 140 μg/kg/min
  Severity of chest pain: 0 ± 0
[7]; [16]
  Severity of chest pain: 0.99 ± 1.93
  Severity of dyspnea: 2.55 ± 2.71
  Severity of flushing: 2.52 ± 2.63
[7]; [17]
  Chest pain, frequency: 22.5%
  Dyspnea, # patients reporting events: 20
  Dyspnea, frequency: 50%
  Flushing, # patients reporting events: 21
  Flushing, frequency: 52.5%
[7]; all 40 patients, ADE adenosine alone 140 μg/kg/min, All SC (DIP 4/5/6) dipyridamole 23, 28 or 35 μg/kg + adenosine 70 μg/kg/min
  Chest pain, # patients reporting events: 9
Patients [8]; DIP dose 28 μg/kg bolus alone, ADE 140 μg/kg/min 3 min
  PV Max, individual patient: 84 cm/sec
Patients [8]; [18]
  MV Max, individual patient: 64 cm/s
  MV Min, individual patient: 20 cm/s
  PV Min, individual patient: 27 cm/sec
Patients [8]; DIP dose 35 μg/kg bolus alone, ADE 140 μg/kg/min 3 min, listed as ADE
  PV Max, individual patients: 88 cm/sec and 84 cm/sec
Patients [8]; [19]
  MV Max, individual patients: 71 cm/s and 61 cm/s
  MV Min, individual patients: 21 cm/s and 23 cm/s
  PV Min, individual patients: 25 cm/sec and 32 cm/sec
Patients [8]; DIP dose 40 μg/kg bolus alone, ADE 140 μg/kg/min 3 min, listed as ADE
  PV Max, individual patients: 92 cm/sec and 112 cm/sec
Patients [8]; DIP dose 40 μg/kg, ADE 140 μg/kg/min
  PV Min, individual patients: 33 cm/sec
Patients [8]; [20]
  MV Max, individual patients: 67 cm/s and 86 cm/s
  MV Min, individual patients: 23 cm/s and 25 cm/s
